ChEMBL document CHEMBL1201862, “PubChem BioAssay data set” (2004)
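Method: 48-hour compound exposure of cells in 96-well plates, five concentrations, linear interpolation of endpoints. GI50 = concentration required for 50% inhibition of growth.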 Active and inactive are the calls of the source. Cut-off read from the data, not from the text of the source: active = GI50 up to about 1.1 µM and inactive = higher.

Assays:
Test in all cases: NCI anticancer screen, dose series, 48 h
A498 = system: A498
ACHN = system: ACHN
EKVX = system: EKVX
HL-60 = system: HL-60
Hs-578T = system: Hs-578T
KM12 = system: KM12
M14 = system: M14
MDA-N = system: MDA-N
Malme-3M = system: Malme-3M
NCI-H23 = system: NCI-H23
NCI-H522 = system: NCI-H522
OVCAR-3 = system: OVCAR-3
RPMI-8226 = system: RPMI-8226
SF-268 = system: SF-268
SK-OV-3 = system: SK-OV-3
SR = system: SR
SW-620 = system: SW-620
T47D = system: T47D
UACC-62 = system: UACC-62
UO-31 = system: UO-31

Measured: GI50

O=[N+]([O-])c1ccc(Oc2c(Cl)cc(S(=O)(=O)N/C(=N\O)Nc3ccc(Cl)cc3)cc2Cl)cc1
inactive: A498 10.4 µM | ACHN 11.6 µM | EKVX 11.9 µM | HL-60 2.47 µM | Hs-578T 14.6 µM | KM12 13.5 µM | M14 12.6 µM | MDA-N 12 µM | Malme-3M 14.8 µM | NCI-H23 9.98 µM | NCI-H522 3.15 µM | OVCAR-3 5.87 µM | RPMI-8226 5.38 µM | SF-268 12.5 µM | SK-OV-3 15.7 µM | SR 4.02 µM | SW-620 13.1 µM | T47D 7.98 µM | UACC-62 11.5 µM | UO-31 5.79 µM

CC(=O)Oc1ccc2c(c1)c1c(=O)oc(N(C)C)nc1n2Cc1ccccc1
inactive: A498 > 41.1 µM | ACHN 45.3 µM | EKVX > 100 µM | HL-60 23.6 µM | Hs-578T > 53.3 µM | KM12 56.6 µM | M14 > 78.7 µM | MDA-N > 71.4 µM | Malme-3M 47.9 µM | NCI-H23 97.5 µM | NCI-H522 12.8 µM | OVCAR-3 55.1 µM | RPMI-8226 > 65 µM | SF-268 37.1 µM | SK-OV-3 > 100 µM | SR 43.1 µM | SW-620 81.1 µM | T47D 29.7 µM | UACC-62 28.4 µM | UO-31 10.8 µM

Cc1csc2c(P(=O)(OC(C)C)OC(C)C)c(-c3ccccc3)cn12
inactive: A498 18.7 µM | ACHN 15 µM | EKVX 17.2 µM | HL-60 19 µM | Hs-578T 17.1 µM | KM12 16.8 µM | M14 18.4 µM | MDA-N 17.9 µM | Malme-3M 19.9 µM | NCI-H23 19.1 µM | NCI-H522 15.3 µM | OVCAR-3 14.4 µM | RPMI-8226 16.3 µM | SF-268 16.6 µM | SK-OV-3 18.5 µM | SR 16.6 µM | SW-620 18.3 µM | T47D 3.84 µM | UACC-62 6.62 µM | UO-31 15.3 µM

CC(=O)C(=Cc1ccc(C=C(C(C)=O)C(C)=O)cc1)C(C)=O
active: HL-60 0.31 µM | KM12 0.12 µM | RPMI-8226 0.282 µM | SR 0.238 µM | SW-620 0.611 µM
inactive: A498 2.58 µM | ACHN 1.76 µM | EKVX 5.31 µM | Hs-578T 3.58 µM | M14 1.34 µM | MDA-N 2.22 µM | Malme-3M 2.01 µM | NCI-H23 1.93 µM | NCI-H522 1.37 µM | OVCAR-3 2.01 µM | SF-268 1.41 µM | SK-OV-3 6.07 µM | T47D 3.05 µM | UACC-62 1.65 µM | UO-31 1.6 µM

CC(C)(C)C(=O)CC1(O)C=C(O)C(O)(CC(=O)C(C)(C)C)O1 (stereo unspecified)
inactive: A498 > 100 µM | EKVX 61.1 µM | HL-60 24.9 µM | Hs-578T 35.2 µM | KM12 63.5 µM | M14 15.8 µM | MDA-N 43.2 µM | Malme-3M 86.9 µM | NCI-H23 22.1 µM | NCI-H522 20.4 µM | OVCAR-3 59.4 µM | RPMI-8226 19.7 µM | SF-268 11.6 µM | SK-OV-3 29.9 µM | SR 4.55 µM | T47D > 100 µM | UACC-62 26.5 µM | UO-31 29.4 µM

CN(C)c1ccc(/C=C2\N=C(c3ccc([N+](=O)[O-])cc3)OC2=O)cc1
inactive: A498 > 100 µM | ACHN 47.6 µM | EKVX > 100 µM | HL-60 41 µM | Hs-578T 40.5 µM | KM12 67.5 µM | M14 > 100 µM | MDA-N 78.9 µM | Malme-3M 49.2 µM | NCI-H23 45.1 µM | NCI-H522 33.3 µM | OVCAR-3 44.9 µM | RPMI-8226 41.7 µM | SF-268 71.6 µM | SK-OV-3 > 100 µM | SR 38.4 µM | SW-620 67.6 µM | T47D 48.4 µM | UACC-62 65.9 µM

COc1cc2nc(-c3ccccc3F)nc(O)c2cc1OC
inactive: A498 > 100 µM | ACHN > 100 µM | EKVX > 100 µM | HL-60 > 100 µM | Hs-578T 42.9 µM | KM12 > 100 µM | M14 > 100 µM | MDA-N > 100 µM | Malme-3M > 100 µM | NCI-H23 > 100 µM | NCI-H522 89.5 µM | OVCAR-3 > 100 µM | RPMI-8226 > 100 µM | SF-268 > 100 µM | SK-OV-3 > 100 µM | SR > 100 µM | T47D > 100 µM | UACC-62 60 µM | UO-31 63.2 µM
